The values that follow come from patent US9273040B2 (Merck Sharp & Dohme Corp., priority 2011, dated 2016).

Format in all cases: cell-based
The target in assay [1] is T1, human Nav1.7 channels stably expressed in HEK 293 cells (Homo sapiens, UniProt Q15858).
T1 construct: expressed in transfected cells
Briefly: PatchXpress 7000 automated patch-clamp, sodium current. Particulars: 22° C., read-out: potency for the Nav 1.7 sodium ion channel (as measured by PatchXpress). The method in brief:
(§1)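 IC50 values came from Hill-equation fits of rundown-corrected inhibition. PatchXpress recordings at 22° C held cells 20 mV negative to V0.5 inact and applied 10 Hz trains of 30 ms steps to −20 mV (Nav1.7) or an 8000 ms prepulse 7 mV positive to V0.5 inact. […]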
A general note: Patch clamp records ionic current or voltage across a cell membrane.

Assay [2] deals with T2, human Nav1.5 channels stably expressed in HEK 293 cells (Homo sapiens, UniProt Q14524).
T2 construct: expressed in transfected cells
The assay is described as above. Particulars: selectivity over Nav1.5. The method, boiled down: as §1

For assay [3], the target named is T1, human Nav1.7 channels stably expressed in HEK 293 cells. Kind of assay: IonWorks Quattro automated patch-clamp, sodium current, inactivated state block. Particulars: read-out: potency for the Nav 1.7 sodium ion channel (as measured by IonWorks). On the procedure:
(§2) Compounds were tested on human Nav1.7 and Nav1.5 channels stably expressed in HEK 293 cells. […] Cells were sealed on a planar substrate using the Population Patch Plate (PPC) technology. Electrical access was obtained using both nystatin and amphotericin. A double-pulse protocol was used for the determination of IC50 values for inactivated state block. Nav1.7 and Nav1.5 expressing cells were voltage clamped at −100 mV and −110 mV, respectively. A depolarizing prepulse to −10 mV (Nav1.7) or −30 mV (Nav1.5) for 1000 ms followed by a 10 ms repolarization to −100 mV (Nav1.7) or −110 mV (Nav1.5) was given to generate fractional channel inactivation of ˜50%, followed by a 10 ms test pulse to −10 mV (Nav1.7) or −30 mV (Nav1.5) to measure peak current in control conditions and after compound addition. The following recording solutions were used (mM). External: 150 NaCl, 2 CaCl2, 5 KCl, 1 Mg Cl2, 10 HEPES, 12 Dextrose; internal: 120 CsF, 30 CsCl, 10 EGTA, 5 HEPES, 5 NaF, 2 MgCl2.
(§3) For all electrophysiology experiments, offline analysis was used to correct for current rundown and to determine percent inhibition as a function of drug concentration. IC50 values were determined by fitting to the Hill equation.

Assay [4] addresses T2, human Nav1.5 channels stably expressed in HEK 293 cells. The assay is described as above. Particulars: selectivity over Nav1.5. On the procedure: as §2, §3

T1 sequence (Q15858 whole entry): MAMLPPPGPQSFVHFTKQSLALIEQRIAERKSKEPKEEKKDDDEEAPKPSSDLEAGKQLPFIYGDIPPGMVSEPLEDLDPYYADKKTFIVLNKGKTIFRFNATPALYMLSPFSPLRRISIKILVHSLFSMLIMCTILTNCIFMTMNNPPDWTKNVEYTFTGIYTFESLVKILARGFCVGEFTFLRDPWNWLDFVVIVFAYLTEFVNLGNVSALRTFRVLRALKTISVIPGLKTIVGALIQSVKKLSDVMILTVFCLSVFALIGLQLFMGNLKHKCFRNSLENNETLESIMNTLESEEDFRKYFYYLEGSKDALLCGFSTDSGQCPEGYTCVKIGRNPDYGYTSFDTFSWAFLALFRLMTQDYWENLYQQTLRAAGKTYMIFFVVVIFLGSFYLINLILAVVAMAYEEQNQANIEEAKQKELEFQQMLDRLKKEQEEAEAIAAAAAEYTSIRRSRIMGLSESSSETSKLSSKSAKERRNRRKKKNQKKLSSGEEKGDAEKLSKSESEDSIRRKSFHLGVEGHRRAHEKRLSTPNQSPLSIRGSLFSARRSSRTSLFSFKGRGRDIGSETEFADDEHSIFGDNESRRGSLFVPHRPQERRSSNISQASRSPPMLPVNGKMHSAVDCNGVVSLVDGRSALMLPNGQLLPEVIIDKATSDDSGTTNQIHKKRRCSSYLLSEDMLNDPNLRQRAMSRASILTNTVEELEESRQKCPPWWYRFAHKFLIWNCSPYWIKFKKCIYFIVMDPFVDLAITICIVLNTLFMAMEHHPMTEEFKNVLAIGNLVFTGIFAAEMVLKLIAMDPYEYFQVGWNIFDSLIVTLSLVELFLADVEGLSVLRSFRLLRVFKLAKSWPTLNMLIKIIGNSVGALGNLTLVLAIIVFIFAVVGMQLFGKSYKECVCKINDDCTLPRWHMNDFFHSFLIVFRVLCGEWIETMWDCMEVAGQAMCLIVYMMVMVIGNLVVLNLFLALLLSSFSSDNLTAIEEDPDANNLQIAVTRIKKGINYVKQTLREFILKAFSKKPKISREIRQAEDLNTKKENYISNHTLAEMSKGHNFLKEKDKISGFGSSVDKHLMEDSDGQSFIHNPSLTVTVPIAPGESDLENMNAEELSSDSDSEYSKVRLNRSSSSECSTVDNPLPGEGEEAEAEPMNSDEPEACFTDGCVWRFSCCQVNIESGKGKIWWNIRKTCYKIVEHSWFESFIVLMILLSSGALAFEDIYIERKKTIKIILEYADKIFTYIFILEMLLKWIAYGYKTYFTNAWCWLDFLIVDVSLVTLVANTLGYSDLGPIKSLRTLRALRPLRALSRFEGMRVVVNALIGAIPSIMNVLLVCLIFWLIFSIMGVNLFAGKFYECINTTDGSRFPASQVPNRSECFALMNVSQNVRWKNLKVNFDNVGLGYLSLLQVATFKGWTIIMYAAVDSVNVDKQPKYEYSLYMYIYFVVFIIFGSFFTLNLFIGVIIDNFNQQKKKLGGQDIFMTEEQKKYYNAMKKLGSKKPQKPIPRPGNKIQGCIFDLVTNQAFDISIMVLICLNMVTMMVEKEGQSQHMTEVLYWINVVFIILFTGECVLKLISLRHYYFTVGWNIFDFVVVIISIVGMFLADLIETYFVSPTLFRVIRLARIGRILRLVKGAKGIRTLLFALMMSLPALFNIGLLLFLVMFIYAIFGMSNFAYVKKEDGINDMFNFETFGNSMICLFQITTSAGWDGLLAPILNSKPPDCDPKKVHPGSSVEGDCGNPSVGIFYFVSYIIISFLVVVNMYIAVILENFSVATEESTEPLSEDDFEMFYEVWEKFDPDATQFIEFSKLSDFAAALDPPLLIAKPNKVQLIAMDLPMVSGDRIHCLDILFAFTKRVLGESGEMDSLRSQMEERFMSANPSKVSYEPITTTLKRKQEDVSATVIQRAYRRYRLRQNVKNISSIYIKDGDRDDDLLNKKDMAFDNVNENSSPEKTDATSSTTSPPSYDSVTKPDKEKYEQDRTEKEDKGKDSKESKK
T2 sequence (Q14524 whole entry): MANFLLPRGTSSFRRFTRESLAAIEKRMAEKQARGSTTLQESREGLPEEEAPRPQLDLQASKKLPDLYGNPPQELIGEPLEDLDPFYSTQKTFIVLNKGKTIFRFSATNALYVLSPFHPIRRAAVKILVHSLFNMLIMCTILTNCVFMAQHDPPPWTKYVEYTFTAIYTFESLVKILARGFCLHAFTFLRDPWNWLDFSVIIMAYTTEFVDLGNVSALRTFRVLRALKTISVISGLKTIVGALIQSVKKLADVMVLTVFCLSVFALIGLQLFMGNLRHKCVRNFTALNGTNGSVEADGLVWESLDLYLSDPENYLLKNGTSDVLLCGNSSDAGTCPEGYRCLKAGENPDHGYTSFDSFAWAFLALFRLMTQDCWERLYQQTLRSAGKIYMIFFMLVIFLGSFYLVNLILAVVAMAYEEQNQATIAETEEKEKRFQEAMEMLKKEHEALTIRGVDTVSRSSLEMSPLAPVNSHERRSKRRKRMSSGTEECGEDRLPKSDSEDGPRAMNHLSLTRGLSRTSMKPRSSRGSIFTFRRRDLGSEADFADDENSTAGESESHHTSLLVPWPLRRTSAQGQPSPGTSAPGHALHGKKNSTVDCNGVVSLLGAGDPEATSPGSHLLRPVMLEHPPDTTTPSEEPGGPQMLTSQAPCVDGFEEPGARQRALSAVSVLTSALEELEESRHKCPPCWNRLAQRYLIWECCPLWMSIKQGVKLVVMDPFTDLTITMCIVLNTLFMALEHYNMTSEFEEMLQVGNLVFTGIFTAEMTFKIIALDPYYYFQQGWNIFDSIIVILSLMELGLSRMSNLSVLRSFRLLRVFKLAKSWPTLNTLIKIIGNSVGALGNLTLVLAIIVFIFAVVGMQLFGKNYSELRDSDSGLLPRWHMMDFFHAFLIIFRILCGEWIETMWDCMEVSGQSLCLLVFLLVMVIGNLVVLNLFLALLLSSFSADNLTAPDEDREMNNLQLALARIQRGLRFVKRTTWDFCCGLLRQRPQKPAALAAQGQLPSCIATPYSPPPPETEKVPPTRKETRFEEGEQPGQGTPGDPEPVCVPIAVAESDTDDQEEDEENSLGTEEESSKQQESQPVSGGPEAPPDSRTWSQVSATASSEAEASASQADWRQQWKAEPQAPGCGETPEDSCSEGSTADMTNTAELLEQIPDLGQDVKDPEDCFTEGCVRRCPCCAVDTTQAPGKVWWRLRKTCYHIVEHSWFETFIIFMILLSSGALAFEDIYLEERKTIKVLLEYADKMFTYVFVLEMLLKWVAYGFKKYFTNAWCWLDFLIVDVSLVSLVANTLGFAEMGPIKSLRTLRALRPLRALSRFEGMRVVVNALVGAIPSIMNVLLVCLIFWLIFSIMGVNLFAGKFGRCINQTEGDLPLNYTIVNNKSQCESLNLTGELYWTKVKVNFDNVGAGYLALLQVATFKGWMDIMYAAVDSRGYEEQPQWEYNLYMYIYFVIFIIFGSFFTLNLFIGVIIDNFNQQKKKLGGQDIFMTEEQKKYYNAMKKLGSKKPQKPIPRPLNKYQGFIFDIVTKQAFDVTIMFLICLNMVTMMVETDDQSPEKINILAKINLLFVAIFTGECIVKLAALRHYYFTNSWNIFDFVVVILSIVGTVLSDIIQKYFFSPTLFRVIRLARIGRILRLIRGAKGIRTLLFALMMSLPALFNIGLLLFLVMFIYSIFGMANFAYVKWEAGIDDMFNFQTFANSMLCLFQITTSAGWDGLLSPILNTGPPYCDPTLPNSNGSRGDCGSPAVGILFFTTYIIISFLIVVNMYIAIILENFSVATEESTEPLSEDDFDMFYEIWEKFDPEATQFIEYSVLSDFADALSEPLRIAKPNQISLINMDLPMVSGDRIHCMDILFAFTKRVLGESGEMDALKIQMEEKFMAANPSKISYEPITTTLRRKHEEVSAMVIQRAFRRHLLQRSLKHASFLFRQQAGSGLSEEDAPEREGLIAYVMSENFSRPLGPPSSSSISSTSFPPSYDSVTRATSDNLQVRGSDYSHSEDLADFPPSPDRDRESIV

In the case of `CN1CCc2cccc(Cn3c(=O)oc4cc(S(=O)(=O)Nc5ncns5)ccc43)c2C1` [Compound 6-1, 3-[(2-Methyl-1,2,3,4-tetrahydroisoquinolin-8-yl)methyl]-2-oxo-N-(1,2,4-thiadiazol-5-yl)-2,3-dihydro-1,3-benzoxazole-6-sulfonamide], the IC50 in assay [1] came out at 869 nM; in assay [3], 366 nM. Moreover, the “ratio of Nav 1.5:Nav 1.7 potency, determined by PatchXpress measurement” value (“ratio … by PatchXpress measurement” for short) in assay [2] is on record as > 35. In assay [4], the “ratio of Nav 1.5:Nav 1.7 potency, determined by IonWorks measurement” value (“ratio … by IonWorks measurement” for short) turned out to be 88.
For the molecule `CCN1CCc2cccc(Cn3c(=O)oc4cc(S(=O)(=O)Nc5ncns5)ccc43)c2C1` [Compound 6-2, 3-[(2-ethyl-1,2,3,4-tetrahydroisoquinolin-8-yl)methyl]-2-oxo-N-1,2,4-thiadiazol-5-yl-2,3-dihydro-1,3-benzoxazole-6-sulfonamide], the results for the IC50 in assay [1] and in assay [3] were 234 nM and 336 nM, respectively. Also, in assay [2], the “ratio … by PatchXpress measurement” value was 71. The “ratio … by IonWorks measurement” value in assay [4] is > 98.
The like results for `O=c1oc2cc(S(=O)(=O)Nc3ncns3)ccc2n1Cc1cccc2c1CN(CC1CC1)CC2` [Compound 6-4, 3-{[2-(cyclopropylmethyl)-1,2,3,4-tetrahydroisoquinolin-8-yl]methyl}-2-oxo-N-1,2,4-thiadiazol-5-yl-2,3-dihydro-1,3-benzoxazole-6-sulfonamide] were, in that order, 626 nM, 464 nM, 37 and 54.
The like results for `CS(=O)(=O)N1CCc2cccc(Cn3c(=O)oc4cc(S(=O)(=O)Nc5ncns5)ccc43)c2C1` [Compound 8-4, 3-{[2-(Methylsulfonyl)-1,2,3,4-tetrahydroisoquinolin-8-yl]methyl}-2-oxo-N-(1,2,4-thiadiazol-5-yl)-2,3-dihydro-1,3-benzoxazole-6-sulfonamide] were, in that order, 254 nM, 526 nM, > 1180 and 20.
The like results for `CC(=O)N1CCc2cccc(Cn3c(=O)oc4cc(S(=O)(=O)Nc5ncns5)ccc43)c2C1` [Compound 9-1, 3-[(2-Acetyl-1,2,3,4-tetrahydroisoquinolin-8-yl)methyl]-2-oxo-N-(1,2,4-thiadiazol-5-yl)-2,3-dihydro-1,3-benzoxazole-6-sulfonamide] were, in that order, 530 nM, 638 nM, > 57 and 35.
On to `O=C(C1CC1)N1CCc2cccc(Cn3c(=O)oc4cc(S(=O)(=O)Nc5ncns5)ccc43)c2C1` [Compound 10-1, 3-{[2-(Cyclopropylcarbonyl)-1,2,3,4-tetrahydroisoquinolin-8-yl]methyl}-2-oxo-N-1,2,4-thiadiazol-5-yl-2,3-dihydro-1,3-benzoxazole-6-sulfonamide], for which the values for the IC50 in assay [1] and in assay [3] were 598 nM and 666 nM, respectively. For the same molecule, the “ratio … by PatchXpress measurement” value in assay [2] is reported as 14. Also, the “ratio … by IonWorks measurement” value in assay [4] was > 50.
For `O=c1oc2cc(S(=O)(=O)Nc3ncns3)c(F)cc2n1Cc1cccc2c1CNCC2` [Compound 11-5, 5-Fluoro-2-oxo-3-(1,2,3,4-tetrahydroisoquinolin-8-ylmethyl)-N-(1,2,4-thiadiazol-5-yl)-2,3-dihydro-1,3-benzoxazole-6-sulfonamide], in that order: 69 nM, 101 nM, 139 and 182.
For `C[C@@H](c1cccc2c1CNCC2)n1c(=O)oc2cc(S(=O)(=O)Nc3ncns3)c(F)cc21` [Compound 11-6, 5-fluoro-2-oxo-3-[(1S)-1-(1,2,3,4-tetrahydroisoquinolin-8-yl)ethyl]-N-1,2,4-thiadiazol-5-yl-2,3-dihydro-1,3-benzoxazole-6-sulfonamide], in that order: 322 nM, 576 nM, > 93 and 57.
`NC/C=C/c1ccccc1Cn1c(=O)oc2cc(S(=O)(=O)Nc3ncns3)c(F)cc21` [Compound 12-3, 3-{2-[(1E)-3-Aminoprop-1-en-1-yl]benzyl}-5-fluoro-2-oxo-N-(1,2,4-thiadiazol-5-yl)-2,3-dihydro-1,3-benzoxazole-6-sulfonamide]: the values for the IC50 in assay [1] and in assay [3] were 27 nM and 5 nM, respectively. For the same molecule, the “ratio … by PatchXpress measurement” value in assay [2] came out at 1096. Further, in assay [4], the “ratio … by IonWorks measurement” value is recorded as 6084.
For `C[C@H](c1cccc2c1CNCC2)n1c(=O)oc2cc(S(=O)(=O)Nc3ncns3)c(F)cc21` [Compound 13-2, 5-Fluoro-2-oxo-3-[(1R)-1-(1,2,3,4-tetrahydroisoquinolin-8-yl)ethyl]-N-(1,2,4-thiadiazol-5-yl)-2,3-dihydro-1,3-benzoxazole-6-sulfonamide], in that order: 26 nM, 4 nM, 357 and 2604.
The like results for `C[C@H](c1ccccc1)n1c(=O)oc2cc(S(=O)(=O)Nc3ncns3)c(F)cc21` [Compound 13-3, 5-fluoro-2-oxo-3-[(1R)-1-phenylethyl]-N-1,2,4-thiadiazol-5-yl-2,3-dihydro-1,3-benzoxazole-6-sulfonamide] were, in that order, 42 nM, 21 nM, 162 and 418.
The like results for `C[C@@H](c1ccccc1)n1c(=O)oc2cc(S(=O)(=O)Nc3ncns3)c(F)cc21` [Compound 13-4, 5-fluoro-2-oxo-3-[(1S)-1-phenylethyl]-N-1,2,4-thiadiazol-5-yl-2,3-dihydro-1,3-benzoxazole-6-sulfonamide] were, in that order, 167 nM, 157 nM, 27 and 78.
In the case of `O=c1oc2cc(S(=O)(=O)Nc3ncns3)c(F)cc2n1C(c1ccccc1)C1CC1` (stereo not shown) [Compound 13-5, 3-[cyclopropyl(phenyl)methyl]-5-fluoro-2-oxo-N-1,2,4-thiadiazol-5-yl-2,3-dihydro-1,3-benzoxazole-6-sulfonamide], the IC50 in assay [1] stood at 145 nM; in assay [3], 110 nM. In addition, the “ratio … by PatchXpress measurement” value in assay [2] is given as > 30. Also, the “ratio … by IonWorks measurement” value in assay [4] was > 300.
